Source: US12263172B2, “Toll-like receptor agonists for use in the treatment of hepatitis b” (priority 2019, dated 2025)
Where “and” joins values, the source holds several entries; their conditions need not be identical. Equal entries are not always repeated. Entries after “also recorded” stand apart in the source; their conditions may differ.

Assay: Phase 1 single-ascending dose (Part 1): safety and tolerability in healthy adults
Assay type: in vivo, human
Method: This ongoing trial is a Phase 1 randomized, double-blind, placebo-controlled study in male and female healthy adult volunteers aged 18-55 years. All volunteers provided written, informed consent.
All volunteers were followed up for 4 weeks and safety and tolerability were continuously assessed throughout the study. All adverse events (AEs) were recorded from the time of consent to the completion visit and were graded using the DAIDS toxicity grading scale. Volunteers also underwent physical examinations, electrocardiograms, vital sign checks and clinical laboratory parameters (chemistry, haematology, urinalysis).

CCCCOc1nc(N)c2[nH]cc(Cc3ccc(CN4CCCC4)cc3)c2n1 [Compound 4]
vital signs: Supine SBP (mmHg) Grade 1 (single dose 1.25 mg fed): 0 n (%) | vital signs: Supine SBP (mmHg) Grade 2 (single dose 1.25 mg fed): 0 n (%) | vital signs: Supine SBP (mmHg) Low (single dose 1.25 mg fed): 0 n (%) | vital signs: Supine pulse (bpm) Low (single dose 1.25 mg fed): 0 n (%) | ↑ AST Grade 3 (laboratory abnormality) (single dose 1.25 mg fed): 0 n (%) | ↑ Amylase Grade 2 (laboratory abnormality) (single dose 1.25 mg fed): 0 n (%) | ↑ Cholesterol Grade 2 (laboratory abnormality) (single dose 1.25 mg fed): 1 (14) n (%) | ↑ Creatine kinase Grade 2 (laboratory abnormality) (single dose 1.25 mg fed): 0 n (%) | ↑ Creatine kinase Grade 4 (laboratory abnormality) (single dose 1.25 mg fed): 0 n (%) | ↑ Glucose Grade 2 (laboratory abnormality) (single dose 1.25 mg fed): 0 n (%) | ↑ LDL cholesterol Grade 2 (laboratory abnormality) (single dose 1.25 mg fed): 1 (14) n (%) | ↑ LDL cholesterol Grade 3 (laboratory abnormality) (single dose 1.25 mg fed): 0 n (%) | ↑ Lipase Grade 2 (laboratory abnormality) (single dose 1.25 mg fed): 0 n (%) | ↑ Pancreatic amylase Grade 2 (laboratory abnormality) (single dose 1.25 mg fed): 0 n (%) | ↑ Potassium Grade 2 (laboratory abnormality) (single dose 1.25 mg fed): 0 n (%) | ↑ Sodium Grade 2 (laboratory abnormality) (single dose 1.25 mg fed): 0 n (%) | ↑ Triglycerides Grade 2 (laboratory abnormality) (single dose 1.25 mg fed): 1 (14) n (%) | ↑ Triglycerides Grade 3 (laboratory abnormality) (single dose 1.25 mg fed): 0 n (%) | ↓ Bicarbonate Grade 2 (laboratory abnormality) (single dose 1.25 mg fed): 0 n (%) | ↓ GFR Grade 2 (laboratory abnormality) (single dose 1.25 mg fed): 0 n (%) | ↓ Lymphocytes Grade 2 (laboratory abnormality) (single dose 1.25 mg fed): 0 n (%) | ↓ Lymphocytes Grade 4 (laboratory abnormality) (single dose 1.25 mg fed): 0 n (%) | ↓ Neutrophils Grade 2 (laboratory abnormality) (single dose 1.25 mg fed): 0 n (%) | ↓ Phosphate Grade 2 (laboratory abnormality) (single dose 1.25 mg fed): 1 (14) n (%) | subjects with Grade 2 treatment-related AEs (pyrexia, headache and hypertension) (single dose 1.8 mg): 2 (33.3%) n (%) | subjects with contact dermatitis (AE) (single dose 1.8 mg): 3 (50.0%) n (%) | subjects with grade 1 increase in temperature around 12 hours after dosing (single dose 1.8 mg): Two | Any AE (treatment-emergent) (single dose 1.8 mg fasted): 5 (83) n (%) | Back pain Grade 1 (treatment-emergent AE) (single dose 1.8 mg fasted): 2 (33) n (%) | Chills Grade 1 (treatment-emergent AE) (single dose 1.8 mg fasted): 2 (33) n (%) | Contact dermatitis Grade 1 (treatment-emergent AE) (single dose 1.8 mg fasted): 3 (50) n (%) | Dizziness Grade 1 (treatment-emergent AE) (single dose 1.8 mg fasted): 2 (33) n (%) | ECG actual value: Heart rate (bpm) Low (single dose 1.8 mg fasted): 0 n (%) | ECG actual value: QRS (ms) High (single dose 1.8 mg fasted): 0 n (%) | ECG actual value: QTcB (ms) ]450; 480] (single dose 1.8 mg fasted): 0 n (%) | ECG actual value: QTcF (ms) ]450; 480] (single dose 1.8 mg fasted): 0 n (%) | ECG change from reference: QTcB (ms) [30; 60] (single dose 1.8 mg fasted): 1 (16.7%) n (%) | ECG change from reference: QTcF (ms) [30; 60] (single dose 1.8 mg fasted): 0 n (%) | Headache Grade 1 (treatment-emergent AE) (single dose 1.8 mg fasted): 0 n (%) | Headache Grade 2 (treatment-emergent AE) (single dose 1.8 mg fasted): 1 (17) n (%) | Hypertension Grade 1 (treatment-emergent AE) (single dose 1.8 mg fasted): 1 (17) n (%) | Hypertension Grade 2 (treatment-emergent AE) (single dose 1.8 mg fasted): 1 (17) n (%) | Myalgia Grade 1 (treatment-emergent AE) (single dose 1.8 mg fasted): 1 (17) n (%) | Oropharyngeal pain Grade 1 (treatment-emergent AE) (single dose 1.8 mg fasted): 1 (17) n (%) | Pyrexia Grade 1 (treatment-emergent AE) (single dose 1.8 mg fasted): 1 (17) n (%) | Pyrexia Grade 2 (treatment-emergent AE) (single dose 1.8 mg fasted): 1 (17) n (%) | URTI Grade 1 (treatment-emergent AE) (single dose 1.8 mg fasted): 1 (17) n (%) | lab toxicity: Amylase (U/L), upwards, Grade 1 (single dose 1.8 mg fasted): 1 (16.7%) n (%) | lab toxicity: Amylase (U/L), upwards, Grade 2 (single dose 1.8 mg fasted): 0 n (%) | lab toxicity: Cholesterol (mmol/L), upwards, Grade 1 (single dose 1.8 mg fasted): 1 (16.7%) n (%) | lab toxicity: Cholesterol (mmol/L), upwards, Grade 2 (single dose 1.8 mg fasted): 0 n (%) | lab toxicity: Creatine kinase (U/L), upwards, Grade 1 (single dose 1.8 mg fasted): 0 n (%) | lab toxicity: Creatine kinase (U/L), upwards, Grade 2 (single dose 1.8 mg fasted): 1 (16.7%) n (%) | lab toxicity: Creatine kinase (U/L), upwards, Grade 4 (single dose 1.8 mg fasted): 0 n (%) | lab toxicity: Glucose (mmol/L), upwards, Grade 1 (single dose 1.8 mg fasted): 0 n (%) | lab toxicity: Glucose (mmol/L), upwards, Grade 2 (single dose 1.8 mg fasted): 0 n (%) | lab toxicity: LDL cholesterol (mmol/L, calculated), upwards, Grade 1 (single dose 1.8 mg fasted): 0 n (%) | lab toxicity: LDL cholesterol (mmol/L, calculated), upwards, Grade 2 (single dose 1.8 mg fasted): 0 n (%) | lab toxicity: LDL cholesterol (mmol/L, calculated), upwards, Grade 3 (single dose 1.8 mg fasted): 0 n (%) | lab toxicity: Lymphocytes (giga/L), downwards, Grade 2 (single dose 1.8 mg fasted): 0 n (%) | lab toxicity: Lymphocytes (giga/L), downwards, Grade 4 (single dose 1.8 mg fasted): 2 (33.3%) n (%) | lab toxicity: Neutrophils, segmented (giga/L), downwards, Grade 1 (single dose 1.8 mg fasted): 0 n (%) | lab toxicity: Neutrophils, segmented (giga/L), downwards, Grade 2 (single dose 1.8 mg fasted): 1 (16.7%) n (%) | lab toxicity: Platelets (giga/L), downwards, Grade 1 (single dose 1.8 mg fasted): 2 (33.3%) n (%) | lab toxicity: Sodium (mmol/L), upwards, Grade 1 (single dose 1.8 mg fasted): 2 (33.3%) n (%) | lab toxicity: Sodium (mmol/L), upwards, Grade 2 (single dose 1.8 mg fasted): 1 (16.7%) n (%) | lab toxicity: Triglycerides (mmol/L), upwards, Grade 1 (single dose 1.8 mg fasted): 5 (83.3%) n (%) | lab toxicity: Triglycerides (mmol/L), upwards, Grade 2 (single dose 1.8 mg fasted): 0 n (%) | lab toxicity: Triglycerides (mmol/L), upwards, Grade 3 (single dose 1.8 mg fasted): 1 (16.7%) n (%) | lab toxicity: Urate (μmol/L), upwards, Grade 1 (single dose 1.8 mg fasted): 1 (16.7%) n (%) | subjects with at least one AE (single dose 1.8 mg fasted): 5 (83.3%) n (%) | subjects with at least one AE for which any study drug or study was permanently stopped (single dose 1.8 mg fasted): 0 n (%) | subjects with at least one AE for which any study drug or study was temporarily stopped (single dose 1.8 mg fasted): 0 n (%) | subjects with at least one AE possibly related to any study drug (single dose 1.8 mg fasted): 1 (16.7%) n (%) | subjects with at least one AE possibly, probably or very likely related to any study drug (single dose 1.8 mg fasted): 2 (33.3%) n (%) | subjects with at least one AE probably related to any study drug (single dose 1.8 mg fasted): 2 (33.3%) n (%) | subjects with at least one SAE (single dose 1.8 mg fasted): 0 n (%) | subjects with at least one fatal AE (single dose 1.8 mg fasted): 0 n (%) | subjects with at least one grade 1 AE (single dose 1.8 mg fasted): 3 (50.0%) n (%) | subjects with at least one grade 2 AE (single dose 1.8 mg fasted): 2 (33.3%) n (%) | subjects with at least one grade 3 or 4 AE (single dose 1.8 mg fasted): 0 n (%) | subjects with fever and flu-like symptoms (flu-like AEs and lymphopenia) (single dose 1.8 mg fasted): 2 and 2/6 | subjects with high VLDL cholesterol levels (non-graded) (single dose 1.8 mg fasted): 4 (66.7%) n (%) | subjects with high values for segmented neutrophils/leukocytes (non-graded) (single dose 1.8 mg fasted): 4 (66.7%) n (%) | treatment-related AE: Any AE (single dose 1.8 mg fasted): 2 (33.3%) n (%) | treatment-related AE: Chills (single dose 1.8 mg fasted): 2 (33.3%) n (%) | treatment-related AE: Dizziness (single dose 1.8 mg fasted): 2 (33.3%) n (%) | treatment-related AE: General disorders and administration site conditions (single dose 1.8 mg fasted): 2 (33.3%) n (%) | treatment-related AE: Headache (single dose 1.8 mg fasted): 1 (16.7%) n (%) | treatment-related AE: Hypertension (single dose 1.8 mg fasted): 2 (33.3%) n (%) | treatment-related AE: Myalgia (single dose 1.8 mg fasted): 1 (16.7%) n (%) | treatment-related AE: Nervous system disorders (single dose 1.8 mg fasted): 2 (33.3%) n (%) | treatment-related AE: Oropharyngeal pain (single dose 1.8 mg fasted): 1 (16.7%) n (%) | treatment-related AE: Pyrexia (single dose 1.8 mg fasted): 2 (33.3%) n (%) | treatment-related AE: Respiratory, thoracic and mediastinal disorders (single dose 1.8 mg fasted): 1 (16.7%) n (%) | treatment-related AE: Vascular disorder (single dose 1.8 mg fasted): 2 (33.3%) n (%) | vital signs: Respiratory rate (brpm) Grade 1 (single dose 1.8 mg fasted): 2 (33.3%) n (%) | vital signs: Respiratory rate (brpm) Grade 2 (single dose 1.8 mg fasted): 1 (16.7%) n (%) | vital signs: SaO2 (%) 90% to <95% (single dose 1.8 mg fasted): 0 n (%) | vital signs: SaO2 (%) 95% to <98% (single dose 1.8 mg fasted): 2 (33.3%) n (%) | vital signs: Standing DBP (mmHg) Grade 1 (single dose 1.8 mg fasted): 3 (50.0%) n (%) | vital signs: Standing DBP (mmHg) Grade 2 (single dose 1.8 mg fasted): 1 (16.7%) n (%) | vital signs: Standing DBP (mmHg) Grade 3 (single dose 1.8 mg fasted): 1 (16.7%) n (%) | vital signs: Standing DBP (mmHg) Low (single dose 1.8 mg fasted): 0 n (%) | vital signs: Standing SBP (mmHg) Grade 1 (single dose 1.8 mg fasted): 1 (16.7%) n (%) | vital signs: Standing SBP (mmHg) Low (single dose 1.8 mg fasted): 0 n (%) | vital signs: Standing pulse (bpm) High (single dose 1.8 mg fasted): 0 n (%) | vital signs: Standing pulse (bpm) Low (single dose 1.8 mg fasted): 0 n (%) | vital signs: Supine DBP (mmHg) Grade 1 (single dose 1.8 mg fasted): 1 (16.7%) n (%) | vital signs: Supine DBP (mmHg) Low (single dose 1.8 mg fasted): 0 n (%) | vital signs: Supine SBP (mmHg) Grade 1 (single dose 1.8 mg fasted): 1 (16.7%) n (%) | vital signs: Supine SBP (mmHg) Grade 2 (single dose 1.8 mg fasted): 1 (16.7%) n (%) | vital signs: Supine SBP (mmHg) Low (single dose 1.8 mg fasted): 0 n (%) | vital signs: Supine pulse (bpm) Low (single dose 1.8 mg fasted): 1 (16.7%) n (%) | ↑ AST Grade 3 (laboratory abnormality) (single dose 1.8 mg fasted): 0 n (%) | ↑ Amylase Grade 2 (laboratory abnormality) (single dose 1.8 mg fasted): 0 n (%) | ↑ Cholesterol Grade 2 (laboratory abnormality) (single dose 1.8 mg fasted): 1/5 | ↑ Creatine kinase Grade 2 (laboratory abnormality) (single dose 1.8 mg fasted): 1 n (%) | ↑ Creatine kinase Grade 4 (laboratory abnormality) (single dose 1.8 mg fasted): 0 n (%) | ↑ Glucose Grade 2 (laboratory abnormality) (single dose 1.8 mg fasted): 0 n (%) | ↑ LDL cholesterol Grade 2 (laboratory abnormality) (single dose 1.8 mg fasted): 0 n (%) | ↑ LDL cholesterol Grade 3 (laboratory abnormality) (single dose 1.8 mg fasted): 0 n (%) | ↑ Lipase Grade 2 (laboratory abnormality) (single dose 1.8 mg fasted): 1/5 | ↑ Pancreatic amylase Grade 2 (laboratory abnormality) (single dose 1.8 mg fasted): 1/2 | ↑ Potassium Grade 2 (laboratory abnormality) (single dose 1.8 mg fasted): 1/5 | ↑ Sodium Grade 2 (laboratory abnormality) (single dose 1.8 mg fasted): 1 n (%) | ↑ Triglycerides Grade 2 (laboratory abnormality) (single dose 1.8 mg fasted): 0 n (%) | ↑ Triglycerides Grade 3 (laboratory abnormality) (single dose 1.8 mg fasted): 1 n (%) | ↓ Bicarbonate Grade 2 (laboratory abnormality) (single dose 1.8 mg fasted): 1 n (%) | ↓ GFR Grade 2 (laboratory abnormality) (single dose 1.8 mg fasted): 0 n (%) | ↓ Lymphocytes Grade 2 (laboratory abnormality) (single dose 1.8 mg fasted): 0 n (%) | ↓ Lymphocytes Grade 4 (laboratory abnormality) (single dose 1.8 mg fasted): 2 n (%) | ↓ Neutrophils Grade 2 (laboratory abnormality) (single dose 1.8 mg fasted): 1 n (%) | ↓ Phosphate Grade 2 (laboratory abnormality) (single dose 1.8 mg fasted): 0 n (%) | lab toxicity: GFR from creatinine adjusted for BSA (mL/s/1.73m^2), downwards, Grade 2 (single dose 1.8 mg fasted, n = 1 with data): 0 n (%) | safety and tolerability (single oral doses of 0.2-1.8 mg): well tolerated with no major safety concerns; also recorded: generally considered safe and well tolerated
